Source: patent US3932668A, “Composition for treating swine scour” (priority 1971, dated 1976)
Values after ≈ are worked out from the molar mass of the structure shown. “Also recorded” adds a separate entry of the source. Counter-ions that a name gives are not always drawn.

Tests used:
[1] = Toxicity (LD50) against mice; assay type: in vivo; conditions: mouse, in vivo
Excerpt: (§1) As is well known, LD50, or the median lethal dose, is the dose which is fatal to 50% of the test animals, and the larger the LD50 is, the lower the toxicity of the test material is.

mice = experiment: Toxicity (LD50) against mice; assay type: in vivo; conditions: intraperitoneal administration
Excerpt: as §1

Escherichia coli 0-78 = experiment: Antimicrobial spectrum, minimum inhibition concentration; assay type: cell-based; conditions: 078
[2] = Growth (increased body weights) of starting chicks raised on mixed feed for 10 weeks; assay type: in vivo; conditions: for Weight Increase Index: non-added group = 100.0
Excerpt: An amount of 2,3,3-triiodo-allyl-methyl ether as shown in Table 3 was uniformly mixed into one ton of a poultry compound feed. The 2,3,3-triiodo-allyl-methyl ether had been premixed with 100 times its weight of defatted rice bran. Using this mixed feed, 20 starting chicks were raised for 10 weeks.

Tricophyton asteroides = experiment: Antimicrobial spectrum, minimum inhibition concentration; assay type: cell-based
Escherichia coli 0-135 = experiment: as above; assay type: cell-based; conditions: 0135
[3] = test system: Streptococcus haemolyticus cook; experiment: as above; assay type: cell-based
Salmonella typhi O-901-W = experiment: as above; assay type: cell-based; conditions: Salmonella enterica
Escherichia coli 0-139 = experiment: as above; assay type: cell-based; conditions: 0139
[4] = Absorption, residue and cross resistance as feed additive (poultry)
Escherichia coli 0-20 = experiment: Antimicrobial spectrum, minimum inhibition concentration; assay type: cell-based; conditions: 020
Escherichia coli 0-83 = experiment: as above; assay type: cell-based; conditions: 083
El-tor vibrio = experiment: as above; assay type: cell-based
Escherichia coli 0-142 = experiment: as above; assay type: cell-based; conditions: 0142
Escherichia coli 0-16 = experiment: as above; assay type: cell-based; conditions: 016
[5] = test system: Cryptococcus neoformans 301; experiment: as above; assay type: cell-based
[6] = test system: Staphylococcus aureus 209-p; experiment: as above; assay type: cell-based
[7] = Absorption, residue and cross resistance as agent for swine scours
[8] = test system: Aspergillus fumigatus Saito; experiment: Antimicrobial spectrum, minimum inhibition concentration; assay type: cell-based
Candida albicans Totuka = experiment: as above; assay type: cell-based
[9] = Field clinical test to treat the scours of pigs; assay type: in vivo; parameters: key to Severity of Conditions, 4th day / Severity of Conditions, 5th day: +++: watery feces; ++: muddy feces; +: soft feces; --: normal feces
Protocol: In use, 2,3,3-triiodo-allyl-methyl ether in crystal form is formed into a fine powder, and either coated with gelatin to a content of about 10% of the ether powder or diluted 10-fold with lactose. It is used in an amount of about 10 mg or more per kilogram of the body weight of the swine in one dosage, and may be increased according to the case. Usually, it is administered twice on the first day, and thereafter, once a day for 3 to 4 days. By this method of treatment, the disease is generally cured in about 5 days.
2,3,3-triiodo-allyl-methyl ether was finely divided in a mortar, and then diluted 10-fold with lactose. A field clinical test was performed using this formulation to treat the scours of 41 pigs. The formulation was administered orally twice on the first day and once a day for the next 3 to 4 days. In this table, the symbols +++, ++, + and -- have the following meanings: […]

[10] = Comparative experiment: effect of kanamycin sulfate against scours of swine (control); assay type: in vivo; parameters: key to Severity of Conditions, 1st day / Severity of Conditions, 2nd day / Severity of Conditions, 3rd day / Severity of Conditions, 4th day / Severity of Conditions, 5th day: +++: watery feces; ++: muddy feces; +: soft feces; --: normal feces; conditions: individual swine (one table line each), single dosage 60-150 mg/Kg
Excerpt: Effect of Kanamycin Sulfate against Scours of […]

[11] = chicks, inferred from body weight at great quantities
[12] = individual pigs (one table line each), oral, single dosage 35-200 mg/Kg, diluted 10-fold with lactose
[13] = chicks, comparative antibiotic, 20 g

What does the source list for `COCC(I)=C(I)I` [2,3,3-triiodo-allyl-methyl ether, methyl-2,3,3-triiodoallylether]?
LD50 ([1]; ip, intraperitoneal administration): 50 to 100 mg/kg; LD50 ([1]; oral administration): > 1000 mg/kg; selectivity ratio ([1]; times or more as great, read-out: LD50 in oral administration relative to that in intraperitoneal administration): 10 to 20; LD50 (mice): 50 to 100 mg/kg; MIC (Escherichia coli 0-78): 3.12 µg/mL (≈ 6.94 µM); Body weight after 10 weeks compared with the group not given the additive ([2]; all groups fed the additive): showed an increase in body weight after 10 weeks; Body weight, 2nd week ([2]; chicks, 1 g/ton of feed): 120.4; Body weight, 4th week ([2]; chicks, 1 g/ton of feed): 357.4; Body weight, 6th week ([2]; chicks, 1 g/ton of feed): 682.4; Body weight, 8th week ([2]; chicks, 1 g/ton of feed): 1084.4; Body weight, 10th week ([2]; chicks, 1 g/ton of feed): 1329.7; Weight Increase Index ([2]; chicks, 1 g/ton of feed): 109.9; Body weight, 2nd week ([2]; chicks, 5 g/ton of feed): 125.9; Body weight, 4th week ([2]; chicks, 5 g/ton of feed): 362.1; Body weight, 6th week ([2]; chicks, 5 g/ton of feed): 706.2; Body weight, 8th week ([2]; chicks, 5 g/ton of feed): 1099.3; Body weight, 10th week ([2]; chicks, 5 g/ton of feed): 1408.4; Weight Increase Index ([2]; chicks, 5 g/ton of feed): 116.4; Body weight, 2nd week ([2]; chicks, 10 g/ton of feed): 147.6; Body weight, 4th week ([2]; chicks, 10 g/ton of feed): 388.0; Body weight, 6th week ([2]; chicks, 10 g/ton of feed): 764.0; Body weight, 8th week ([2]; chicks, 10 g/ton of feed): 1150.7; Body weight, 10th week ([2]; chicks, 10 g/ton of feed): 1512.1; Weight Increase Index ([2]; chicks, 10 g/ton of feed): 125.0; Body weight, 2nd week ([2]; chicks, 20 g/ton of feed): 120.4; Body weight, 4th week ([2]; chicks, 20 g/ton of feed): 350.2; Body weight, 6th week ([2]; chicks, 20 g/ton of feed): 647.3; Body weight, 8th week ([2]; chicks, 20 g/ton of feed): 990.7; Body weight, 10th week ([2]; chicks, 20 g/ton of feed): 1303.1; Weight Increase Index ([2]; chicks, 20 g/ton of feed): 109.7; Body weight, 2nd week ([2]; chicks, 50 g/ton of feed): 124.3; Body weight, 4th week ([2]; chicks, 50 g/ton of feed): 359.4; Body weight, 6th week ([2]; chicks, 50 g/ton of feed): 671.3; Body weight, 8th week ([2]; chicks, 50 g/ton of feed): 1030.5; Body weight, 10th week ([2]; chicks, 50 g/ton of feed): 1382.2; Weight Increase Index ([2]; chicks, 50 g/ton of feed): 114.3; Body weight, 2nd week ([2]; chicks, 100 g/ton of feed): 128.2; Body weight, 4th week ([2]; chicks, 100 g/ton of feed): 349.8; Body weight, 6th week ([2]; chicks, 100 g/ton of feed): 663.1; Body weight, 8th week ([2]; chicks, 100 g/ton of feed): 946.7; Body weight, 10th week ([2]; chicks, 100 g/ton of feed): 1223.7; Weight Increase Index ([2]; chicks, 100 g/ton of feed): 101.2; Body weight, 2nd week ([2]; chicks, 200 g/ton of feed): 106.5; Body weight, 4th week ([2]; chicks, 200 g/ton of feed): 343.2; Body weight, 6th week ([2]; chicks, 200 g/ton of feed): 686.3; Body weight, 8th week ([2]; chicks, 200 g/ton of feed): 1039.6; Body weight, 10th week ([2]; chicks, 200 g/ton of feed): 1298.3; Weight Increase Index ([2]; chicks, 200 g/ton of feed): 107.3; Effect of great quantities on body weight ([2]; chicks, addition of great quantities): did not cause a decrease in body weight; Absorption by the digestive tract [2, 11]: little absorbed; Side-effects [2, 11]: does not have side-effects; MIC (Tricophyton asteroides): 1.56 µg/mL (≈ 3.47 µM); MIC (Escherichia coli 0-135): 3.12 µg/mL (≈ 6.94 µM); MIC [3]: 12.5 µg/mL (≈ 27.8 µM); MIC (Salmonella typhi O-901-W): 3.12 µg/mL (≈ 6.94 µM); MIC (Escherichia coli 0-139): 12.5 µg/mL (≈ 27.8 µM); Cross resistance ([4]; feed additive for poultry): does not have cross resistance; Absorption by the digestive tract of poultry ([4]; poultry): hardly absorbed; Residue build-up ([4]; poultry): free from residue build-up; MIC (Escherichia coli 0-20): 0.78 µg/mL (≈ 1.73 µM); MIC (Escherichia coli 0-83): 12.5 µg/mL (≈ 27.8 µM); MIC (El-tor vibrio): 3.12 µg/mL (≈ 6.94 µM); MIC (Escherichia coli 0-142): 6.25 µg/mL (≈ 13.9 µM); MIC (Escherichia coli 0-16): 6.25 µg/mL (≈ 13.9 µM); MIC [5]: 0.78 µg/mL (≈ 1.73 µM); MIC [6]: 6.25 µg/mL (≈ 13.9 µM); Cross resistance ([7]; agent for swine scours): does not have cross resistance; Absorption by the digestive tract of swine ([7]; swine): hardly absorbed; Build-up of residue ([7]; swine): does not cause a build-up of residue; MIC [8]: 3.12 µg/mL (≈ 6.94 µM); MIC (Candida albicans Totuka): 3.12 µg/mL (≈ 6.94 µM); Effect against the diarrhea of swine ([9]; Table 4, comparison with kanamycin sulfate): superior effect; Severity of Conditions, 4th day [9, 12]: -- and + and ++; Severity of Conditions, 5th day [9, 12]: --; Time in which the disease is generally cured ([9]; swine scours, about 10 mg or more per kg, twice first day, then once a day for 3 to 4 days): about 5 days

For `NC[C@H]1O[C@H](O[C@H]2[C@H](O)[C@@H](O[C@H]3O[C@H](CO)[C@@H](O)[C@H](N)[C@H]3O)[C@H](N)C[C@@H]2N)[C@H](O)[C@@H](O)[C@@H]1O` [Kanamycin Sulfate], which Evaluation [10] is on record?
The Evaluation was “Cured; also recorded: Deaths”.

And the “Severity of Conditions, 1st day” value [10]?
Its value is “++ and + and +++”.

What about the “Severity of Conditions, 2nd day” value [10] of the same compound?
The value was “++ and + and -- and +++”.

What about the “Severity of Conditions, 3rd day” value [10] of the same compound?
Its value is “+ and ++ and --”.

And the “Severity of Conditions, 4th day” value [10]?
Its value is “-- and + and ++”.

And the “Severity of Conditions, 5th day” value [10]?
Its value is “-- and + and ++”.

Which “Body weight, 2nd week” value [2, 13] does the source give for `CC1(C)S[C@@H]2[C@H](NC(=O)Cc3ccccc3)C(=O)N2[C@H]1C(=O)O` [Procaine Pencillin G] here?
The value was 127.3.

What about the “Body weight, 4th week” value [2, 13] of the same compound?
Its value is 374.6.

What about the “Body weight, 6th week” value [2, 13] of the same compound?
The value was 664.2.

And the “Body weight, 8th week” value [2, 13]?
The value was 1012.9.

What about the “Body weight, 10th week” value [2, 13] of the same compound?
The value was 1324.0.

What about the “Weight Increase Index” value [2, 13] of the same compound?
Its value is 109.5.
